Consider 21 compounds from article PMC5737116, “Biochemical Properties of Human D-Amino Acid Oxidase” (Frontiers in Molecular Biosciences, 2017).

“Also recorded” adds a separate entry of the source. Read-outs that look alike come from different tables or passages of the source.

The target in assay [1] is T1, hDAAO (Homo sapiens, UniProt P14920).
T1 construct: made in house; host or cells: E. coli
The experiment in a line: Modulation of hDAAO activity, standard activity assay. In kind it is biochemical. To be noted: for effect on hDAAO activity on D-alanine: D-alanine 2 or 28 mM, simultaneous 10 mM magnesium ions and 10 μM nucleotide. How it is done:
The effect of MgCl2 and CaCl2 (1 or 10 mM), of 10 μM ATP or GTP and of both divalent ions and nucleotides was assessed using the standard activity assay.

Assay [2] concerns the target T2, hDAAO holoenzyme (Homo sapiens, UniProt P14920).
T2 construct: made in house; host or cells: E. coli
The experiment in a line: Ligand binding to hDAAO, protein fluorescence quenching. Conditions: for Kd: 15°C.

Assay [3] deals with T1, hDAAO. Conditions: cited from earlier work.
The target of assay [4] is T1, hDAAO. The experiment in a line: Oxygen-consumption activity assay, apparent kinetic parameters (substrate specificity). Conditions: for kcat / Km: apparent, 21% oxygen saturation, pH 8.5, 25°C; for oxidation by hDAAO: at 100 and 500 mM final concentration. The class given is biochemical.
Assay [5] deals with T3, hDAAO apoprotein (Homo sapiens, UniProt P14920).
T3 construct: made in house; host or cells: E. coli
The experiment in a line: FAD binding to hDAAO apoprotein, protein fluorescence quenching. To be noted: 15°C. The method, then: Protein fluorescence spectra were measured at 1 μM protein concentration (0.04 mg/mL) in 20 mM Tris-HCl buffer, pH 8.0, 100 mM NaCl, 10% (v/v) glycerol, 5 mM 2-mercaptoethanol, and 40 μM FAD for the holoenzyme and in 50 mM sodium pyrophosphate, pH 8.3 for the apoprotein; spectra were recorded using a Jasco FP-750 instrument and were corrected for the buffer contribution. Protein fluorescence spectra were recorded between 300 and 400 nm, with excitation at 280 nm. […] In all cases, Kd-values were determined using an hyperbolic plot.

The target in assay [6] is T3, hDAAO apoprotein. Conditions: cited from earlier work.
In assay [7] the target is T3, hDAAO apoprotein. The assay is described as follows: Holoenzyme reconstitution, decrease in flavin fluorescence at 528 nm. In kind it is binding. How it is done: The holoenzyme reconstitution process was also investigated by adding increasing concentrations of apoprotein to ~1 μM of FAD and following the decrease in flavin fluorescence at 528 nm (excitation at 450 nm).

Assay [8] has as its target T1, hDAAO. The experiment in a line: Reduction of FAD following anaerobic addition of L-amino acid. The class given is biochemical. How it is done: The ability of L-serine to bind at the hDAAO active site like the corresponding D-enantiomer is further confirmed by the observed reduction of FAD following anaerobic addition of the L-amino acid: 14 μM of hDAAO was reduced by 1 mM L-serine in >60 min.

Assay [9] concerns the target T1, hDAAO. The assay is described as follows: Inhibition of D-serine oxidation by L-serine. In kind it is biochemical.
In assay [10] the target is T1, hDAAO. Conditions: following enzyme inactivation; ref Kawazoe et al., 2006; cited from earlier work.
The target of assay [11] is T1, hDAAO. To be noted: cited from earlier work. This is another data set of the same source.
Assay [12] concerns the target T2, hDAAO holoenzyme. The experiment in a line: Far-UV CD spectrum of hDAAO in the presence of ions and nucleotides. Conditions: 1 or 10 mM. The method, then:
Circular dichroism (CD) spectra were recorded using a Jasco J-815 spectropolarimeter (Jasco Co., Cremella, Italy) in 10 mM Tris-HCl, pH 8.0, 1% (v/v) glycerol, and 40 μM FAD. The cell path length was 0.1 cm for measurements in the 200- to 250-nm region (0.1 mg protein/mL) and 1 cm for measurements in the 250–350 nm range (0.4 mg protein/mL) (Caldinelli et al., [2010]).

[13] abbreviates: apparent, 21% oxygen saturation, pH 8.5, 25°C, ref Molla et al., 2006.
[14] abbreviates: value in brackets, ref Raibekas et al., 2000.
[15] abbreviates: at pH 8.3, ref Kawazoe et al., 2007b.
The mark [16] stands for this setting: apparent, 21% oxygen saturation, pH 8.5, 25°C, ref Frattini et al., 2011.

T1 sequence (P14920 whole entry): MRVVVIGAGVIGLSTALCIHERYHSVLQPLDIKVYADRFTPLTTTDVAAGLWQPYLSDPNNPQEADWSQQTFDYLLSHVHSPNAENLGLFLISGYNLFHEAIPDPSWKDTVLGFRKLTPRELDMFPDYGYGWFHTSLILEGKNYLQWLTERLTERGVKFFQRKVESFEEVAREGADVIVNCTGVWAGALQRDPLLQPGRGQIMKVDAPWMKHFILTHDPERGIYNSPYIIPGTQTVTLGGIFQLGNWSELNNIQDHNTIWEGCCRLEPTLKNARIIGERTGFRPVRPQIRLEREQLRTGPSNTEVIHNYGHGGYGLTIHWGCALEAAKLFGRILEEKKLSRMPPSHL
T2 sequence (P14920 whole entry): as above
T3 sequence (P14920 whole entry): as above

Regarding `Nc1ncnc2c1ncn2[C@@H]1O[C@H](COP(=O)(O)OP(=O)(O)OP(=O)(O)O)[C@@H](O)[C@H]1O` [ATP], the “effect on hDAAO activity on D-alanine” value in assay [1] is on record as “not modified”. The “change in protein fluorescence” value in assay [2] (up to 20 mM) was “no change”.
`C[C@@H](N)C(=O)O` [D-Alanine]: in assay [3] (setting [13]), the Km (usually the concentration of substrate that gives half-maximal velocity) is 1300 ± 200 µM; the kcat (in general, the number of substrate molecules converted per active site and unit of time at saturation) is 5.2 ± 0.1 s⁻¹. In assay [3] (setting [14]), the Km is 1000 µM and the kcat is 10 s⁻¹. In addition, the specific activity in assay [4] (saturating D-alanine concentration (28 mM), 25°C, pH 8.5, 200 μM FAD) turned out to be 9.5 U/mg protein.
In the case of `N[C@H](CC(=O)O)C(=O)O` [D-Aspartate], the kcat is 6.7 ± 1.2 s⁻¹ in assay [3] (setting [13]) and 6.7 s⁻¹ in assay [3] (apparent, 21% oxygen saturation, pH 8.5, 25°C, ref Molla et al., 2006, listed as D-aspartate).
For the compound `N[C@H](Cc1ccc(O)c(O)c1)C(=O)O` [D-DOPA, 3,4-dihydroxyphenylalanine], the values for the Km in assay [3] (setting [15]) and in assay [4] (read-out: Km) were 1500 µM and 6000 ± 1300 µM, respectively. For the same compound, the kcat is 21.7 s⁻¹ in assay [3] (setting [15]) and ~ 40 s^−1 in [4]. Moreover, the Ki in assay [3] (substrate inhibition effect, at pH 8.3, ref Kawazoe et al., 2007b) was 500 µM; in [4] it was 41300 µM.
Consider `N[C@H](CCC(=O)O)C(=O)O` [D-Glutamate], for which the “change in protein fluorescence” value in assay [2] (up to 50 mM) is “no change”. For the same compound, in assay [4], the Km result was “b. d”, the kcat entry is listed as “b. d” and the “oxidation by hDAAO” value is given as “not oxidized”.
Take `Nc1ccccc1C(=O)C[C@@H](N)C(=O)O` [D-Kynurenine]: in [4], the kcat amounted to 0.09 ± 0.01 s⁻¹. Moreover, in [4] (read-out: Km), the Km worked out at 700 ± 400 µM.
Regarding `N[C@H](Cc1ccccc1)C(=O)O` [D-Phenylalanine], in assay [3] (setting [16]), the Km was 2700 ± 200 µM and the kcat is 6.6 ± 0.1 s⁻¹. In addition, in assay [3] (setting [15]), the Km is 1200 µM and the kcat was 15.5 s⁻¹.
As to `O=C(O)[C@H]1CCCN1` [D-Proline], in [3] (setting [13]), the Km was 8500 ± 1000 µM and the kcat was 10.2 ± 0.1 s⁻¹.
As for `N[C@H](CO)C(=O)O` [D-Serine], the Km in [3] (setting [13]) is 7500 ± 500 µM; in assay [3] (setting [15]) it was 3900 µM; in assay [3] (setting [14]), 1000 µM. Further, the kcat in assay [3] (setting [13]) is 3.0 ± 0.1 s⁻¹; in assay [3] (setting [15]) it was 4 s⁻¹.
For `N[C@H](Cc1c[nH]c2ccccc12)C(=O)O` [D-Tryptophan], in [3] (setting [16]), the Km is 1500 ± 100 µM and the kcat is 3.2 ± 0.1 s⁻¹.
For the compound `N[C@H](Cc1ccc(O)cc1)C(=O)O` [D-Tyrosine], in [3] (setting [15]), the Km was 1100 µM and the kcat was 14.8 s⁻¹.
`Cc1cc2nc3c(=O)[nH]c(=O)nc-3n(C[C@H](O)[C@H](O)[C@H](O)COP(=O)(O)OP(=O)(O)OC[C@H]3O[C@@H](n4cnc5c(N)ncnc54)[C@H](O)[C@@H]3O)c2cc1C` [FAD]: the Kd in assay [5] (7 μM benzoate, read-out: Kd, first phase) is 0.43 ± 0.02 µM; in assay [5] (7 μM benzoate, read-out: Kd, second phase) it was 19.1 ± 2.8 µM; in assay [5] (70 μM benzoate, read-out: Kd, single saturation), 0.48 ± 0.02 µM; in [5] (absence of active-site ligand, read-out: Kd, first phase) it was 0.43 ± 0.02 µM; in [5] (absence of active-site ligand, read-out: Kd, second phase) it was more than 30 µM; in assay [6] (benzoate binding, ref Molla et al., 2006, Caldinelli et al., 2010, read-out: Kd, flavin interaction with benzoate bound), 0.3 µM. Besides, the Kd in assay [6] (interaction with the flavin cofactor, ref Molla et al., 2006, read-out: Kd) is 8 µM; in assay [7] (70 μM benzoate, monophasic, read-out: Kd), 0.4 ± 0.04 µM; in [7] (absence of benzoate, ~1 μM FAD titrated with apoprotein, read-out: Kd, 1), 0.67 ± 0.07 µM; in assay [7] (absence of benzoate, ~1 μM FAD titrated with apoprotein, read-out: Kd, 2) it was 4 ± 0.9 µM. The “fold tighter interaction with FAD in the presence of an active site ligand” value in assay [6] (active site ligand such as benzoate, ref Molla et al., 2006) is reported as 20 fold.
Regarding `Nc1nc2c(ncn2[C@@H]2O[C@H](COP(=O)(O)OP(=O)(O)OP(=O)(O)O)[C@@H](O)[C@H]2O)c(=O)[nH]1` [GTP], the “effect on hDAAO activity on D-alanine” value in assay [1] is “not modified”.
`NCC(=O)O` [Glycine]: the kcat in assay [3] (setting [13]) is on record as ~ 0.9 s^−1. The “change in protein fluorescence” value in [2] (up to 50 mM) is “no change”. The “apparent Km, fold higher than physiological concentration” value in assay [4] is ~ 1,000 fold.
For `CC(=O)N[C@@H](CS)C(=O)O` [L-NAC, N-acetyl-L-cysteine], in assay [1] (1 or 10 mM, even when added 60 min before the assay), the “effect on hDAAO activity” value is “does not affect; also recorded: not altered”.
As for `N[C@@H](CO)C(=O)O` [L-serine], the “time for reduction of hDAAO flavin” value in assay [8] (14 μM hDAAO, 1 mM L-amino acid, anaerobic) is on record as more than 60 min. In assay [9] (D-serine oxidation at increasing L-serine concentrations), the type of inhibition entry is recorded as “competitive inhibitor”. For the same compound, the Ki in [9] (competitive versus D-serine) was determined as 26200 µM.
With `CN[C@H](CC(=O)O)C(=O)O` [N-Methyl-D-aspartate], the “change in protein fluorescence” value in [2] (up to 50 mM) is given as “no change”. Also, in assay [4], the Km entry is listed as “b. d”, the kcat result was “b. d” and the “oxidation by hDAAO” value was “not oxidized”. Moreover, in assay [8] (compared with L-serine, not shown), the “reduction of FAD following anaerobic addition” value is “not”.
Take `O=C(O)c1ccccc1` [benzoate]: the Ki in assay [10] is 7 µM. Moreover, the Kd in [2] (higher ligand concentrations, ~80% of fluorescence change, read-out: Kd, second saturation) is 2590 ± 680 µM; in assay [2] (low benzoate concentrations (≤ 20 μM), read-out: Kd, first saturation), 0.33 ± 0.04 µM; in assay [11] (CD signal at ~270 nm, ref Caldinelli et al., 2010), 9.5 µM; in assay [11] (formation of a shoulder at 484 nm in the absorbance spectrum, ref Raibekas et al., 2000, Molla et al., 2006), 5 to 7 µM.
For `[Ca+2]` [calcium ions], the “effect on far-UV CD spectrum / protein conformation” value in [12] is on record as “slightly modified”.
For `CN(C)CCCN1c2ccccc2Sc2ccc(Cl)cc21` [chlorpromazine], in assay [6] (ref Iwana et al., 2008, Sacchi et al.), the “competition with FAD for the binding to hDAAO apoprotein” value was “compete with FAD”.
As to `[Mg+2]` [magnesium ions], in [1] (1 or 10 mM final concentration), the “effect on hDAAO activity” value was “do not modify”. The “effect on far-UV CD spectrum / protein conformation” value in [12] is “do not modify”.
